Reference: paper PMC12358994, “Proline Homologation in Melanostatin Neuropeptide: Discovery of Potent Modulators of the Dopamine D2 Receptors” (ACS Medicinal Chemistry Letters, 2025)
Peptide text beside a SMILES is read from it.

Legend:
[1] = test system: differentiated SH-SY5Y neuronal cells; assay: Neutral red (NR) uptake assay in differentiated SH-SY5Y cells; type: cell-based, human; conditions: 125 μM, 48 h; positive control for cytotoxicity
Description: (§1) Following a protocol established in our research group, , these compounds were tested at 100 μM concentration using the 3-(4,5-dimethylthiazol-2-yl)-2,5-diphenyltetrazolium bromide (MTT) reduction and the neutral red (NR) uptake assays.
(§2) 5 Neurotoxic effects of the synthesized compounds were examined via MTT reduction (A) and NR uptake (B) assays in differentiated SH-SY5Y neuronal cells. Cells were incubated for 48 h with 1, 9, MIF-1 (100 μM), or 6-OHDA (125 μM). Compounds were solubilized in phosphate-buffered saline (PBS) solution. Results are reported as a percentage relative to the control (PBS) and shown as mean ± standard deviation. Data were collected from 16 to 36 wells across 9 independent experiments for the MTT reduction assay and from 12 wells and 3 independent experiments for the NR uptake assay. Statistical analyses were performed using the analysis of variance (ANOVA) test, followed by Tukey’s post hoc test (*p < 0.05 and ****p < 0.0001 vs control).
(§3) 4. Cytotoxicity in Human Neuronal SH-SY5Y Cells. The SH-SY5Y cell line was sourced from Sigma-Aldrich (Taufkirchen, Germany). DMEM medium [DMEM (1x) + GlutaMAX], DMEM/F-12, and Fetal Bovine Serum (FBS) were purchased from Gibco and Alfagene (Carcavelos, Portugal). Penicillin and Streptomycin were obtained from Biotecnómica (Porto, Portugal). Phosphate-buffered solution (PBS) without calcium and magnesium was acquired from Biochrom (Berlin, Germany). Trypsin/EDTA solution, 0.4% (w/v) trypan blue solution, NR solution, RA, and TPA were also obtained from Sigma-Aldrich (Germany). DMSO and HBSS (Hanks' Balanced Salt Solution) were purchased from Merck (Germany). MTT was sourced from Alfa Aesar (Kandel, Germany). 6-OHDA hydrobromide (CAS: 636-00-0) was acquired from Sigma-Aldrich (Germany).
(§4) Cell counts were performed on a Neubauer chamber using a Nikon Eclipse TS100 microscope from Nikon (Japan), and plate readings (MTT reduction and NR uptake assays) were conducted on a BioTek Synergy HT plate reader from BioTek (USA). Tissue culture flasks (25 cm²) and tissue culture 48 -well plates were purchased from TPP (Switzerland), while 5-, 10-, and 25-mL serological pipettes were obtained from Nerbe-Plus (Germany). Throughout all procedures, SH-SY5Y cells were maintained in a 5% CO2 incubator from Heraeus (Germany) at 37 °C. Cells were trypsinized after reaching confluence before experiments or for general culture maintenance.
(§5) Human neuroblastoma SH-SY5Y cells were maintained in complete DMEM medium supplemented with 10% (v/v) FBS and 1% (v/v) antibiotics (100 units/mL penicillin and 100 μg/mL streptomycin), at 37 °C in a 5% CO2 incubator throughout all procedures. […] After trypsin inactivation, cells were counted using a 0.4% (w/v) trypan blue solution and an optical microscope. […]

[2] = test system: differentiated SH-SY5Y neuronal cells; assay: MTT reduction assay in differentiated SH-SY5Y cells; type: cell-based, human; conditions: 125 μM, 48 h; positive control for cytotoxicity
Description: as §1, §2, §3, §4, §5

[3] = Neutral red (NR) uptake assay in differentiated SH-SY5Y cells; type: cell-based, human; conditions: human
Description: as §1, §2, §3, §4, §5

human D2R = human D2R (Homo sapiens, UniProt P14416); assay: D2R functional assay in the absence of dopamine (intrinsic agonist activity); type: cell-based
Description: To exclude intrinsic agonist activity and validate the PAM mechanism of the best-performing MIF-1 derivatives 1 and 9, the same experiments were conducted in the absence of dopamine and compared to the concentration–response curve of dopamine alone (Figure ).
3 Concentration–response for compounds 1 and 9 obtained at human D2R in the absence of dopamine (DA), with the DA concentration–response curve included for reference. Data are presented as the mean ± standard deviation from three independent experiments.

[4] = MTT reduction assay in differentiated SH-SY5Y cells; type: cell-based, human; conditions: human
Description: as §1, §2, §3, §4, §5

[5] = test system: dopamine receptors isolated from bovine caudate tissue; set-up: method as in Johnson and co-workers; conditions: 100 nM; ref Johnson and co-workers; cited from earlier work

Sequence of human D2R (P14416 whole entry): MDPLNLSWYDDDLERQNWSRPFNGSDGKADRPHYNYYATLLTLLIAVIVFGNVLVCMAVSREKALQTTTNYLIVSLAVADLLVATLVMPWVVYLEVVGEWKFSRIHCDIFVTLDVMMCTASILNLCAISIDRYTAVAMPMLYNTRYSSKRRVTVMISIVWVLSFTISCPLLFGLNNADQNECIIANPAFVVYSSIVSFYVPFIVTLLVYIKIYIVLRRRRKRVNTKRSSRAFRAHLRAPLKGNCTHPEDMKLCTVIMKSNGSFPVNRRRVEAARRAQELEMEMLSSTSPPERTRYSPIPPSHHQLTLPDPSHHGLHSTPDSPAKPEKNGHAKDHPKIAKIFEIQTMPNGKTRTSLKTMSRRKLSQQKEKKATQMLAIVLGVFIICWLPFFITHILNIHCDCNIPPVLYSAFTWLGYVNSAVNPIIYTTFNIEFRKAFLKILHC

intrinsic agonistic effect (human D2R) | Structure (SMILES) | NR uptake, percentage relative to control (PBS) [1] [%] | MTT reduction, percentage relative to control (PBS) [2] [%] | viability at 48 h, 100 µM [3] [%] | viability at 48 h, 100 µM [4] [%] | enhancement of specific binding of [3H]-ADTN (maximal effect) [5] [%]
– | NCCc1cc(O)c(O)cc1O [6-OHDA, 6-hydroxydopamine, reference compound] | 57.26 ± 7.41 | 45.64 ± 11.85 | – | – | –
no intrinsic agonistic effect | COC(=O)CNC(=O)[C@H](CC(C)C)NC(=O)[C@@H]1CCCCN1 [compound 9, methyl L-pipecolyl-L-leucylglycinate] (HELM PEPTIDE1{[O=C([C@@H]1CCCCN1)[*:2]].L.G.[CO[*:1]]}$$$$V2.0) | – | – | 100 ± 2.09 | 105 ± 6.8 | –
no intrinsic agonistic effect | CC(C)C[C@H](NC(=O)[C@@H]1CCCCN1)C(=O)NCC(N)=O [compound 1, L-pipecolyl-L-leucylglycinamide] (HELM PEPTIDE1{[O=C([C@@H]1CCCCN1)[*:2]].L.G.[am]}$$$$V2.0) | – | – | 102 ± 3.48 | 105 ± 7.1 | 58.7 ± 9.3
– | CC(C)C[C@H](NC(=O)[C@@H]1CCCN1)C(=O)NCC(N)=O [MIF-1, L-prolyl-L-leucylglycinamide, reference compound] (H-Pro-Leu-Gly-NH2) | – | – | 97.8 ± 8.56 | 105 ± 6 | 46.2 ± 13.4
